{"source": "patent US12351574B2", "about": "“Selective ligands for modulation of GIRK channels” (Northeastern University, priority 2018, dated 2025)", "target": "T1, GIRK1-S65Y with GIRK2 (UniProt P48542+P48549, S65Y)", "T1 construct": "expressed in transfected cells; host or cells: HEK293 cells", "T1 sequence (P48549 1-501 S65Y)": "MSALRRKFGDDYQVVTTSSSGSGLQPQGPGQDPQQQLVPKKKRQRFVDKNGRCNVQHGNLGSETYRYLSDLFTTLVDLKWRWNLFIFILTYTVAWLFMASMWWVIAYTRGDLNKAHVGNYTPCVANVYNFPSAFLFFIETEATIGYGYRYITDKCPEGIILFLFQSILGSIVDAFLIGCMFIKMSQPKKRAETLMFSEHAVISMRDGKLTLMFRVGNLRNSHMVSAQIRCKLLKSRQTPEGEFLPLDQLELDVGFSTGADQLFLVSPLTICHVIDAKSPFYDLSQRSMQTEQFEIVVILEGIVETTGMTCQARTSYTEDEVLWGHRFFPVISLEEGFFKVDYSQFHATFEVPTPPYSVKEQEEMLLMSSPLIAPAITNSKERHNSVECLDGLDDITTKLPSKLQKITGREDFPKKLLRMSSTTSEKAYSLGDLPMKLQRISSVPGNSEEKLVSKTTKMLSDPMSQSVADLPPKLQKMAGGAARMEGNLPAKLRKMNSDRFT", "T1 sequence (P48542 1-425)": "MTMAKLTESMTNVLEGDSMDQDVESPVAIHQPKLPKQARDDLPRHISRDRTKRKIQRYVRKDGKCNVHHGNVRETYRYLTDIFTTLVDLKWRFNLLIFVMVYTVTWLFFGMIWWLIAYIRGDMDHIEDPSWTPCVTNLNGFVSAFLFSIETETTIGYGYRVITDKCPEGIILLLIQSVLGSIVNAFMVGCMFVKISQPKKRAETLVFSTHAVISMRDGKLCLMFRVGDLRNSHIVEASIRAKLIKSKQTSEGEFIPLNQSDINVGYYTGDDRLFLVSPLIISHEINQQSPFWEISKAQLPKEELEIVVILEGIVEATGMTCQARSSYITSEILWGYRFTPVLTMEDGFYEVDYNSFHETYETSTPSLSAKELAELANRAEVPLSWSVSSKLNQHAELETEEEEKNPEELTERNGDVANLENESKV", "experiment": "5-ptaseOCRL current inhibition, GIRK1/2 channels containing GIRK1-S65Y subunits", "format": "cell-based, human GIRK1, mouse GIRK2", "details": "10 μM GAT1508", "source_text": "To identify changes in specific channel residue interactions with PIP2 upon ligand binding, the inventors carried out Principal Component Analysis (PCA) in the presence and absence of ML297 and GAT1508. The PCA analysis implicated changes in the slide (or interfacial) helix interactions with PIP2 upon ligand binding. Polar interactions could be formed between GIRK2^FD(Y76) and GIRK4^FD(Y71) with the P(4,5) of PIP2 when ML297 was bound to the same subunit (FIG. 39 top, FIG. 40). In contrast, when GAT1508 was bound this interaction was retained by GIRK2^FD but not GIRK4^FD (FIG. 39 bottom, FIG. 40). The corresponding GIRK1(S65) residue (FIG. 41, highlighted with vertical rectangle) could be serving the same role in stabilizing the phosphoinositol headgroup for interactions with non-ligand binding subunits. As polar residues, both Ser and Tyr could form H-bond interactions with PIP2. […]\nPatch-clamp recording: Whole-cell currents were recorded with an Axopatch 200B amplifier (Molecular Devices) controlled via a USB-interface (National Instruments) using WinWCP software (University of Strathclyde). […] The barium-sensitive component of the current, observed when cells were perfused with the high-K^+ buffer, was analyzed and was determined by perfusing 5 mM BaCl2 in the high-K^+ buffer at the end of each experiment. […]", "data": [{"smiles": "Cc1cc(NC(=O)Nc2ccc(Br)s2)n(-c2ccccc2)n1", "note": "[GAT1508, 1-(5-bromothiophen-2-yl)-3-(3-methyl-1-phenyl-1H-pyrazol-5-yl)urea]", "values": [{"measurement": "protection of current from 5-ptaseOCRL (in words)", "value": "no additional effect"}]}]}
